In patent US8598147B2, “Synergistic antimicrobial composition” (Dow Global Technologies LLC, priority 2009, dated 2013):

Experiments:
[1] = tested on: oil field isolated anaerobic consortium, mainly SRB; test: Biocidal efficacy (MBC, complete bacteria kill) of THPS, CTAC and THPS/CTAC combination against sulfate reducing bacteria; format: cell-based, sulfate reducing bacteria (SRB)
Procedure: Inside an anaerobic chamber (BACTRON anaerobic chamber), a deaerated sterile salt solution (3.1183 g of NaCl, 1.3082 mg of NaHCO3, 47.70 mg of KCl, 72.00 mg of CaCl2, 54.49 mg of MgSO4, 172.28 mg of Na2SO4, 43.92 mg of Na2CO3 in 1 L water) was contaminated with an oil field isolated anaerobic consortium, mainly SRB, at final bacterial concentrations of 10^6 to 10^7 CFU/mL.

oilfield SRB consortium = test: Biocidal efficacy against anaerobic bacteria for a high temperature and sulfide-rich environment (dosage for 99.999% bacterial reduction); format: cell-based, sulfate reducing bacteria (SRB); settings: 80° C., 7 days, daily challenge of SRB consortium and 10 ppm sulfide ion
Procedure: Inside an anaerobic chamber (BACTRON IV), biocides solutions were challenged with 10^4 to 10^5CFU/mL of an oilfield SRB consortium and 10 ppm sulfide ion (added in the form of sodium sulfide). The biocide solutions were then incubated at 80° C. under anaerobic condition for 7 days, with daily challenge of the SRB consortium (10^4 to 10^5CFU/mL) and sulfide ion (10 ppm). Then the biocidal efficacy was evaluated against the field SRB consortium at 2 hours and 7 days. The biocidal efficacy was determined by the biocide dosage required for 99.999% bacterial reduction. Synergy Index was then calculated. Table 2 summarizes the efficacy of each biocide and their blends, and the Synergy Index of each combination.

Molecule	MBC (active ppm) CTAC ([1]; CTAC concentration (alone or within the blend) for complete bacteria kill, 40° C., 24 hour, anaerobic, 10^6 to 10^7 CFU/mL) [active ppm]	Concentration (active ppm) required for 99.999% bacterial reduction CTAC (oilfield SRB consortium; CTAC concentration (alone or within the blend)) [active ppm]	MBC (active ppm) THPS [1] [active ppm]	Concentration (active ppm) required for 99.999% bacterial reduction THPS (oilfield SRB consortium; THPS concentration (alone or within the blend)) [active ppm]
Cl/C=C\C[N+]12CN3CN(CN(C3)C1)C2.[Cl-] [CTAC, cis-1-(3-chloroallyl)-3,5,7-triaza-1-azoniaadamantane chloride]	31.1	180		
tetrakis(hydroxymethyl)phosphonium sulfate [THPS]			4.1	45.0
